Test results taken from US4710499A, “New derivatives of pyridazine active on the central nervous system” (priority 1981, dated 1987).
Counter-ions that a name gives are not always drawn. Like-named read-outs stand apart in the source and are kept apart here.

Legend:
[1] = system: convulsivant effects of strychnine; experiment: Anti-Strychnine Activity (oral, mice); type: in vivo; conditions: for ED50: Mus musculus, po, read-out: Inhibition of the convulsivant effects of Strychinine ED50
Method: (§1) The anticonvulsivant activity of the derivatives was assessed with respect to two chemical agents: strychnine and bicuculline, and with respect to electric shock. In these various tests, the products were compared with the minaprine described in French Patent 2 141 697 mentioned hereinabove.
The products are administered by the oral route 30 minutes before the strychnine 0.9 mg/kg i.p.. The occurrence of tetanic crises as well as mortality are noted during the 60 minutes following administration of strychnine.
(§2) In the three cases, the products are administered in a range of doses to batches of 10 mice per dose.

[2] = system: convulsivant effects of bicuculline; experiment: Anti-Bicuculline Activity (oral, mice); type: in vivo; conditions: for ED50: Mus musculus, read-out: Inhibition of the convulsivant effects of Bicuculline ED50
Method: as §1
Anti-Bicuculline Activity
The products are administered by the oral route 30 minutes before the bicuculline 0.9 mg/kg i.v.. The occurrence of clonic, tonic crises as well as mortality are noted during the 60 minutes following administration of bicuculline.
as §2

[3] = system: convulsivant effects of electric shock; experiment: Anti-Electric Shock Activity (oral, mice); type: in vivo; conditions: for ED50: Mus musculus, po, read-out: Inhibition of the convulsivant effects of electric shock ED50; for anti-convulsivant activity with respect to electric shock (in words): oral
Method: The anticonvulsivant activity of the derivatives was assessed with respect to two chemical agents: strychnine and bicuculline, and with respect to electric shock.
Anti-Electric Shock Activity
The electric shock was given to the animal via corneal electrodes. […] The animals not presenting extension of the rear limbs were considered as protected.
as §2

[4] = Acute toxicity, mortality within 24 hours (oral, mice); type: in vivo; conditions: mouse, in vivo
mice = experiment: as above; type: in vivo; conditions: for toxic effect at the dose of 500 mg/kg p.os (in words): mouse, in vivo
[5] = per os; cited from earlier work
[6] = 30 minutes before bicuculline 0.9 mg/kg i.v., 10 mice per dose
[7] = mice, per os, 30 minutes before electric shock (12.5 volts for 0.5 seconds), corneal electrodes, 10 mice per dose
[8] = mice, oral, 250 mg/kg, 24 hours, read-out: p. cent of mortality at 250 mg/kg
[9] = mice, oral, 500 mg/kg, 24 hours, read-out: p. cent of mortality at 500 mg/kg
[10] = mice, oral, 1000 mg/kg, 24 hours, read-out: p. cent of mortality at 1000 mg/kg

| SMILES | ED50 [1] [mg/kg] | ED50 [2, 6] [mg/kg] | ED50 [3, 7] [mg/kg] | mortality at 24 h [4, 8] [%] | mortality at 24 h [4, 9] [%] | mortality at 24 h [4, 10] [%] | anti-convulsivant activity with respect to strychnine (in words) ([1]; mice, oral) | anti-convulsivant activity with respect to bicuculline (in words) [2] | anti-convulsivant activity with respect to electric shock (in words) ([3]; mice) | mortality at 24 h ([4]; po, 250 mg/kg) [%] | mortality at 24 h ([4]; po, 500 mg/kg) [%] | mortality at 24 h ([4]; po, 1000 mg/kg) [%] | further results |
| --- | --- | --- | --- | --- | --- | --- | --- | --- | --- | --- | --- | --- | --- |
| Cc1cc(-c2ccccc2)nnc1NCCO [CM 30094, 3-(2-HYDROXY ETHYLAMINO)4-METHYL 6-PHENYL PYRIDAZINE] | 119 | 286 | 107 | 0 | 0 | 0 | – | – | – | – | – | – | – |
| Cc1cc(-c2ccccc2)nnc1NCC(C)O (stereo not shown) [CM 30096] | 92 | 175 | 209 | – | – | – | particularly powerful | still considerable | still considerable | 0 | 20 | 100 | toxic effect at the dose of 500 mg/kg p.os (in words) (mice): have a toxic effect |
| Cc1cc(-c2ccccc2)nnc1NCCCCO [CM 30097] | – | – | – | 0 | 0 | 100 | – | – | – | – | – | – | – |
| COCCNc1nnc(-c2ccccc2)cc1C [CM 30310, 3-(2-METHOXY ETHYLAMINO)4-METHYL 6-PHENYL PYRIDAZINE] | 158 | 136 | 78 | 0 | 0 | 100 | particularly powerful | – | – | – | – | – | – |
| OCCNc1nnc(-c2ccccc2)cc1-c1ccccc1 [CM 30339] | 145 | 86 | ~200 | – | – | – | particularly powerful | – | – | 0 | 60 | 60 | toxic effect at the dose of 500 mg/kg p.os (in words) (mice): have a toxic effect |
| COCCNc1nnc(-c2ccccc2)cc1-c1ccccc1 [CM 30340, 3-(2-methoxyethylamino)4,6-diphenyl pyridazine] | – | – | – | 0 | 0 | 20 | – | – | – | – | – | – | – |
| CCCCNc1nnc(-c2ccccc2)cc1C [CM 30434, 3-BUTYLAMINO 4-METHYL 6-PHENYL PYRIDAZINE] | – | – | – | 0 | 0 | 0 | – | – | – | – | – | – | – |
| Cc1cc(-c2ccccc2)nnc1NCCN1CCOCC1 [Minaprine, reference compound] | – | – | – | – | – | – | totally inactive | totally inactive | totally inactive | 100 | 100 | 100 | Inhibition of the convulsivant effects of Strychinine ED50 ([1]; mice, oral, 30 minutes before strychnine 0.9 mg/kg i.p., 10 mice per dose): Inactive; Inhibition of the convulsivant effects of Bicuculline ED50 [2, 6]: Inactive; Inhibition of the convulsivant effects of electric shock ED50 [3, 7]: Inactive; mortality ([4]; po, 100 mg/kg): 20%; toxicity, overall (in words) (mice; mice, p.os): much greater toxic effect; dose at which the product shows itself to be convulsivant [5]: greater than 100 mg/kg |
| CCCC(CCC)C(=O)O [Sodium Valproate, sodium salt of valproic acid, reference compound] | 480 | 234 | – | – | – | – | effective dose 50 most often greater than that of the products of the invention | effective dose 50 most often greater than that of the products of the invention | effective dose 50 most often greater than that of the products of the invention | – | – | – | ED50 [3]: 290 mg/kg |
